pIC50: −log10 of the molar value.
Assays:
[1] = system: Mino cells; assay: Antiproliferative effect, MTS cell viability assay, Mino cells; type: cell-based; conditions: Homo sapiens, MINO, Mino mantle cell lymphoma cells; read-out: IC50 (anti-proliferation) Mino cells
Method in brief: (§1)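 Tested at six concentrations (0 to 10 μM in tenfold steps), 72 h; viability by MTS, A490.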

[2] = target: BTK (Homo sapiens, UniProt Q06187); assay: Degradation of BTK protein in Namalwa cells (Western blot; DC50, Dmax); conditions: for DC50: read-out: DC50 (BTK degradation), concentration giving 50% reduction of BTK expression level, cell line not given; for Dmax: read-out: Dmax (BTK degradation)
Chain of BTK (Q06187 whole entry): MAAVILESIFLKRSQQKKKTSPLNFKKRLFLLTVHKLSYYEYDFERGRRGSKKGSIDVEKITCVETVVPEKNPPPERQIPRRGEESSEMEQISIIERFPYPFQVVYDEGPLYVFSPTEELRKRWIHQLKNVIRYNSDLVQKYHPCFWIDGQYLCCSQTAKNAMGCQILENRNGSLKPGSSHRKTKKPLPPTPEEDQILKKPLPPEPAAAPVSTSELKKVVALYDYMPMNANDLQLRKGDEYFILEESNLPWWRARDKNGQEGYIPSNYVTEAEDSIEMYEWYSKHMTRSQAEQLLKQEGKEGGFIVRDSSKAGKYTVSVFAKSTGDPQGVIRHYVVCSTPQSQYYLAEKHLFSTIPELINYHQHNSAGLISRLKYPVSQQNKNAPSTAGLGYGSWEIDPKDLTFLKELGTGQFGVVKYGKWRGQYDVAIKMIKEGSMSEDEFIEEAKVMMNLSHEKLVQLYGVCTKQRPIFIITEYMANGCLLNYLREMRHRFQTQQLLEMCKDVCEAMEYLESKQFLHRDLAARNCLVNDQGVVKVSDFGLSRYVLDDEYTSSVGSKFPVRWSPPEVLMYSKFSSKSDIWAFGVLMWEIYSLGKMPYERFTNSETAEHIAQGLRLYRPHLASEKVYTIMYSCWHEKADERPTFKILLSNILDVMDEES

[3] = system: JeKo-1 cells; assay: Antiproliferative effect, MTS cell viability assay, JeKo-1 cells; type: cell-based; conditions: Homo sapiens; JeKo-1 mantle cell lymphoma cells; read-out: IC50 (anti-proliferation) JeKO-1 cells
Method in brief: as §1

| DC50 [2] [nM] | Dmax [2] [%] | Compound | pIC50 [1] | pIC50 [3] |
| --- | --- | --- | --- | --- |
| < 10 | > 90 | Nc1ncnc2c1c(-c1ccc(Oc3ccccc3)cc1)nn2C1CCN(C(=O)NCCN2CCN(c3ccc4c(c3)CN(C3CCC(=O)NC3=O)C4=O)CC2)CC1 (stereo not drawn) [Compound 521, 4-(4-amino-3-(4-phenoxyphenyl)-1H-pyrazolo[3,4-d]pyrimidin-1-yl)-N-(2-(4-(2-(2,6-dioxopiperidin-3-yl)-1-oxoisoindolin-5-yl)piperazin-1-yl)ethyl)piperidine-1-carboxamide] | > 6.00 | > 6.00 |
| < 10 | > 90 | Nc1ncnc2c1c(-c1ccc(Oc3ccccc3)cc1)nn2C1CCC(C(=O)NCCN2CCN(c3ccc4c(c3)C(=O)N(C3CCC(=O)NC3=O)C4=O)CC2)CC1 (stereo not drawn) [Compound 522, 4-(4-amino-3-(4-phenoxyphenyl)-1H-pyrazolo[3,4-d]pyrimidin-1-yl)-N-(2-(4-(2-(2,6-dioxopiperidin-3-yl)-1,3-dioxoisoindolin-5-yl)piperazin-1-yl)ethyl)cyclohexane-1-carboxamide] | > 6.00 | > 6.00 |
| < 10 | > 90 | Nc1ncnc2c1c(-c1ccc(Oc3ccccc3)cc1)nn2C1CCC(C(=O)NCCN2CCN(c3ccc4c(c3)CN(C3CCC(=O)NC3=O)C4=O)CC2)CC1 (stereo not drawn) [Compound 523, 4-(4-amino-3-(4-phenoxyphenyl)-1H-pyrazolo[3,4-d]pyrimidin-1-yl)-N-(2-(4-(2-(2,6-dioxopiperidin-3-yl)-1-oxoisoindolin-5-yl)piperazin-1-yl)ethyl)cyclohexane-1-carboxamide] | > 6.00 | > 6.00 |
| < 10 | > 90 | Nc1ncnc2c1c(-c1ccc(Oc3ccccc3)cc1)nn2[C@@H]1CCCN(C(=O)NCCN2CCN(c3ccc4c(c3)C(=O)N(C3CCC(=O)NC3=O)C4=O)CC2)C1 (stereo partly drawn) [Compound 524, (3R)-3-(4-amino-3-(4-phenoxyphenyl)-1H-pyrazolo[3,4-d]pyrimidin-1-yl)-N-(2-(4-(2-(2,6-dioxopiperidin-3-yl)-1,3-dioxoisoindolin-5-yl)piperazin-1-yl)ethyl)piperidine-1-carboxamide] | > 6.00 | 5.00 to 6.00 |
| < 10 | > 90 | Nc1ncnc2c1c(-c1ccc(Oc3ccccc3)cc1)nn2[C@@H]1CCCN(C(=O)CCCN2CCN(c3ccc4c(c3)C(=O)N(C3CCC(=O)NC3=O)C4=O)CC2)C1 (stereo partly drawn) [Compound 525, 5-(4-(4-((R)-3-(4-amino-3-(4-phenoxyphenyl)-1H-pyrazolo[3,4-d]pyrimidin-1-yl)piperidin-1-yl)-4-oxobutyl)piperazin-1-yl)-2-(2,6-dioxopiperidin-3-yl)isoindoline-1,3-dione] | 5.00 to 6.00 | > 6.00 |
| < 10 | > 90 | Nc1ncnc2c1c(-c1ccc(Oc3ccccc3)cc1)nn2[C@@H]1CCCN(CCNC(=O)N2CCN(c3ccc4c(c3)C(=O)N(C3CCC(=O)NC3=O)C4=O)CC2)C1 (stereo partly drawn) [Compound 526, N-(2-((R)-3-(4-amino-3-(4-phenoxyphenyl)-1H-pyrazolo[3,4-d]pyrimidin-1-yl)piperidin-1-yl)ethyl)-4-(2-(2,6-dioxopiperidin-3-yl)-1,3-dioxoisoindolin-5-yl)piperazine-1-carboxamide] | 5.00 to 6.00 | 5.00 to 6.00 |
| 10 to 50 | > 75 | Nc1ncnc2c1c(-c1ccc(Oc3ccccc3)cc1)nn2[C@@H]1CCCN(CCNC(=O)C2CCN(c3ccc4c(c3)C(=O)N(C3CCC(=O)NC3=O)C4=O)CC2)C1 (stereo partly drawn) [Compound 527, N-(2-((R)-3-(4-amino-3-(4-phenoxyphenyl)-1H-pyrazolo[3,4-d]pyrimidin-1-yl)piperidin-1-yl)ethyl)-1-(2-(2,6-dioxopiperidin-3-yl)-1,3-dioxoisoindolin-5-yl)piperidine-4-carboxamide] | > 6.00 | 5.00 to 6.00 |
| 10 to 50 | > 75 | Nc1ncnc2c1c(-c1ccc(Oc3ccccc3)cc1)nn2[C@@H]1CCCN(C2CCN(CC3CCN(c4ccc(N5CCC(=O)NC5=O)cc4)CC3)CC2)C1 [Compound 528, (R)-1-(4-(4-((3-(4-amino-3-(4-phenoxyphenyl)-1H-pyrazolo[3,4-d]pyrimidin-1-yl)-[1,4′-bipiperidin]-1′-yl)methyl)piperidin-1-yl)phenyl)dihydropyrimidine-2,4(1H,3H)-dione] | 5.00 to 6.00 | 5.00 to 6.00 |
| 10 to 50 | > 50 | Nc1ncnc2c1c(-c1ccc(Oc3ccccc3)cc1)nn2[C@@H]1CCCN(CC2CCN(c3ccc(N4CCC(=O)NC4=O)cc3)CC2)C1 [Compound 529, (R)-1-(4-(4-((3-(4-amino-3-(4-phenoxyphenyl)-1H-pyrazolo[3,4-d]pyrimidin-1-yl)piperidin-1-yl)methyl)piperidin-1-yl)phenyl)dihydropyrimidine-2,4(1H,3H)-dione] | < 5.00 | < 5.00 |
| < 10 | > 90 | Nc1ncnc2c1c(-c1ccc(Oc3ccccc3)cc1)nn2C1CCN(CC2CC(N3CCN(c4ccc5c(c4)C(=O)N(C4CCC(=O)NC4=O)C5=O)CC3)C2)CC1 (stereo not drawn) [Compound 530, 5-(4-(3-((4-(4-amino-3-(4-phenoxyphenyl)-1H-pyrazolo[3,4-d]pyrimidin-1-yl)piperidin-1-yl)methyl)cyclobutyl)piperazin-1-yl)-2-(2,6-dioxopiperidin-3-yl)isoindoline-1,3-dione] | > 6.00 | > 6.00 |
| < 10 | > 90 | Nc1ncnc2c1c(-c1ccc(Oc3ccccc3)cc1)nn2C1CCN(CC2CC(N3CCN(c4ccc5c(c4)CN(C4CCC(=O)NC4=O)C5=O)CC3)C2)CC1 (stereo not drawn) [Compound 531, 3-(5-(4-(3-((4-(4-amino-3-(4-phenoxyphenyl)-1H-pyrazolo[3,4-d]pyrimidin-1-yl)piperidin-1-yl)methyl)cyclobutyl)piperazin-1-yl)-1-oxoisoindolin-2-yl)piperidine-2,6-dione] | > 6.00 | > 6.00 |
| < 10 | > 90 | Nc1ncnc2c1c(-c1ccc(Oc3ccccc3)cc1)nn2C1CCC(CN2CC(N3CCN(c4ccc5c(c4)C(=O)N(C4CCC(=O)NC4=O)C5=O)CC3)C2)CC1 (stereo not drawn) [Compound 532, 5-(4-(1-((4-(4-amino-3-(4-phenoxyphenyl)-1H-pyrazolo[3,4-d]pyrimidin-1-yl)cyclohexyl)methyl)azetidin-3-yl)piperazin-1-yl)-2-(2,6-dioxopiperidin-3-yl)isoindoline-1,3-dione] | > 6.00 | > 6.00 |
| < 10 | > 90 | Nc1ncnc2c1c(-c1ccc(Oc3ccccc3)cc1)nn2C1CCC(CN2CC(N3CCN(c4ccc5c(c4)CN(C4CCC(=O)NC4=O)C5=O)CC3)C2)CC1 (stereo not drawn) [Compound 533, 3-(5-(4-(1-((4-(4-amino-3-(4-phenoxyphenyl)-1H-pyrazolo[3,4-d]pyrimidin-1-yl)cyclohexyl)methyl)azetidin-3-yl)piperazin-1-yl)-1-oxoisoindolin-2-yl)piperidine-2,6-dione] | > 6.00 | > 6.00 |
| > 50 | > 50 | Nc1ncnc2c1c(-c1ccc(Oc3ccccc3)cc1)nn2C1CCN(C2CCN(CCCC#Cc3ccc(N4CCC(=O)NC4=O)cc3)CC2)CC1 [Compound 534, 1-(4-(5-(4-(4-amino-3-(4-phenoxyphenyl)-1H-pyrazolo[3,4-d]pyrimidin-1-yl)-[1,4′-bipiperidin]-1′-yl)pent-1-yn-1-yl)phenyl)dihydropyrimidine-2,4(1H,3H)-dione] | < 5.00 | < 5.00 |
| > 50 | > 50 | Nc1ncnc2c1c(-c1ccc(Oc3ccccc3)cc1)nn2C1CCN(C2CCN(CCCCC#Cc3ccc(N4CCC(=O)NC4=O)cc3)CC2)CC1 [Compound 535, 1-(4-(6-(4-(4-amino-3-(4-phenoxyphenyl)-1H-pyrazolo[3,4-d]pyrimidin-1-yl)-[1,4′-bipiperidin]-1′-yl)hex-1-yn-1-yl)phenyl)dihydropyrimidine-2,4(1H,3H)-dione] | < 5.00 | < 5.00 |
| > 50 | > 50 | Nc1ncnc2c1c(-c1ccc(Oc3ccccc3)cc1)nn2C1CCN(C2CCN(CCCCC#Cc3ccc(N4CCC(=O)NC4=O)cc3)C2)CC1 (stereo not drawn) [Compound 536, 1-(4-(6-(3-(4-(4-amino-3-(4-phenoxyphenyl)-1H-pyrazolo[3,4-d]pyrimidin-1-yl)piperidin-1-yl)pyrrolidin-1-yl)hex-1-yn-1-yl)phenyl)dihydropyrimidine-2,4(1H,3H)-dione] | < 5.00 | < 5.00 |
| > 50 | > 50 | Nc1ncnc2c1c(-c1ccc(Oc3ccccc3)cc1)nn2C1CCN(C2CCN(CCCC#Cc3ccc(N4CCC(=O)NC4=O)cc3)C2)CC1 (stereo not drawn) [Compound 537, 1-(4-(5-(3-(4-(4-amino-3-(4-phenoxyphenyl)-1H-pyrazolo[3,4-d]pyrimidin-1-yl)piperidin-1-yl)pyrrolidin-1-yl)pent-1-yn-1-yl)phenyl)dihydropyrimidine-2,4(1H,3H)-dione] | < 5.00 | < 5.00 |
| > 50 | > 50 | Nc1ncnc2c1c(-c1ccc(Oc3ccccc3)cc1)nn2C1CCN(CCCC#Cc2ccc(N3CCC(=O)NC3=O)cc2)CC1 [Compound 538, 1-(4-(5-(4-(4-amino-3-(4-phenoxyphenyl)-1H-pyrazolo[3,4-d]pyrimidin-1-yl)piperidin-1-yl)pent-1-yn-1-yl)phenyl)dihydropyrimidine-2,4(1H,3H)-dione] | < 5.00 | < 5.00 |

From US12139492B2 (Endotarget Inc., priority 2021, dated 2024)
